Test results published in patent publication US20100160268A1, “Isoflavonoid Analogs and their Metal Conjugates as Anti-Cancer Agents” (priority 2005, published 2010).
Each block holds one molecule with its values, some of them ahead of it.

Legend:
[1] = system: vascular endothelial growth factor (VEGF) in BxPC3 cells; assay: In vitro expression of VEGF (ELISA); type: cell-based, human; conditions: 10 μM, 20 μM, 72 h
Experimental: BxPC3 cells (0.1×10^6/well) were plated into 6-well plates and incubated in supplemented RPMI containing 10% FBS.

COLO 357 cells = assay: Orthotopic pancreatic tumor model; type: in vivo
Text: Since the NF-κB pathway is regulated by Akt protein, the effects of the FPA-124 on NF-κB activity was studied in an in vivo experiment, specifically the well-established orthotopic pancreatic tumor model using COLO 357 cells.

[2] = system: breast cancer cell line (T47D); assay: Propidium iodide / Hoechst 33342 fluorescence microscopy for apoptosis; type: cell-based
Experimental: To provide further evidence of apoptosis, we carried out […] using a mixture of propidium iodide (PI) and Hoechst dye 33342 to determine the integrity of cell membranes of cancer cells. The quantification of the apoptosis was carried out by cell count after staining with PI followed by visualization of treated cells by fluorescence analysis. The fluorescent dyes PI and Hoechst 33342 were added to the cell culture medium after treatment with the test compounds (10 μM) for 48 h at a final concentrations of 10 μg/ml (PI dye) and Hoechst 33342 (1 μg/ml), respectively. After 5 minutes at 37° C. the cells were placed under a fluorescence microscope (Nikon Optiphot) with a filter block giving excitation at 380 nm and 480 nm.

NF-κB = assay: EMSA of NF-κB in tumor tissue of orthotopic pancreatic model; type: in vivo, mice
Experimental: The redox sensitive transcription factor NF-κB, is downstream of the Akt kinase protein and plays major role in the cell proliferation and metastasis and resistance in major cancers such as breast, prostate and pancreatic. […] Nuclear proteins were extracted from the tumor tissue as described previously (see, for example, Banerjee, et al., Cancer Research, Vo. 65, p. 9064 (2005)) and kept at −70° C. until use. Protein concentration was determined using the bicinchonic acid assay kit with BSA as the standard (Pierce Chemical Co., Rockford, Ill.). The incubation mixture included 25 mM DTT and 2.5% Tween 20 in a binding buffer. The DNA-protein complex formed was separated from free oligonucleotide on 8.0% native polyacralyamide gel using buffer containing 50 mM Tris, 200 mm glycine, pH 8.5, and 1 mM EDTA, and then visualized by Odyssey Infrared Imaging System using Odyssey Software Release 1.1.
However, there were significant differences in the pattern of necrosis, inflammatory response and fibrosis among these two groups. […] The viable tumor cells form large nests or sheets with minimal stromal fibrosis and inflammatory infiltrates. […] Only 20% of the mass was viable. The viable neoplastic cells form small nests of clusters associated with extensive stromal fibrosis and inflammatory infiltrates (See, FIG. 10c). […]

tumor cells = assay: Incubation with copper conjugate at IC50 concentration, viability and apoptosis (data not shown); type: cell-based
[3] = system: Akt, p-Akt and PARP in PC3 cells; assay: Western blot of Akt, p-Akt and PARP; type: cell-based, human; conditions: 10 and 20 μM, 72 h
Experimental: Control cells were incubated in the medium with Na2CO3 using same time point. After incubation the cells were lysed with This-HCl (62.5 mm) and 2% SDS. Protein concentration was then measured using […] protein assay (Pierce Chemical Co., Rockford, Ill.). Cell extracts were subjected to 10% SDS-PAGE and electrophoretically transferred to nitrocellulose membrane. Membranes were then incubated with monoclonal anti-Akt (epitome: amino acids 345-480 of Akt1, 1:500; Ontogeny, 26. San Diego, Calif.), anti-phosphor-Akt Ser473 (1:1000; Cell Signaling, Beverly, Mass.), primary monoclonal anti-PARP antibody (1:5000; Biomol, Plymouth Meeting, Pa.) and anti-β-actin (1:5000; Sigma) antibodies, washed with TTBS, and incubated with secondary antibody conjugated with peroxidase. The signal was then detected using the chemiluminescent detection system (Pierce, Rockford, Ill.).

[4] = system: MCF-7, T47D, BT20, MDA-MB231, PC3, BxPC3, COLO357 cancer cell lines; assay: MTT assay, panel of breast, prostate and pancreatic cancer cell lines; type: cell-based; conditions: in words
Experimental: (§1) The compounds were tested in multiple panels of breast (MCF-7, T47D, BT20 and MDA-MB231), prostate (PC3), and pancreatic (BxPC3, COLO357) cancer cell lines, using the dye 3-[4,5 dimethylthiazol-2-yl]-2,5 diphenyltetrazolium bromide (MTT assay) according to a method described in Banerjee, et al., Cancer Research, Vol. 62, page 4945 (2002).
More specifically, the tumor cell lines MCF-7, MDA-MB 231 and COLO 357 were maintained in Dulbecco's modifed Eagle's medium (DMEM) with phenol red. Cell lines T47D, BT20, PC3 and BxPC3 were routinely cultured in RPMI medium, each medium being supplemented with Penicillin (50 U/ml), Streptomycin (50 μg/ml) and 10% fetal calf serum (FCS) (Gibco, Myclone). The cell lines were cultured in a humidified incubator in an atmosphere of 5% CO2 and were maintained in continuous exponential growth by twice a week passage.
Adherent cells at a logarithmic phase were detached by addition of 2-3 ml of trypsin (Gibco), 0.02% EDTA mixture and incubation at 37° C. Cells were plated (100 μL per well) in 48 well flat bottom microtiter plates at densities of 2000 to 5000 per cm^2 (MCF-7, […], T47D, BT20, PC3, BxPC3, COLO357) cells per well. Cells were incubated for 24 h at 37° C. to resume exponential growth. […] Cell proliferation was evaluated after 72h by means of MTT assay.

[5] = system: BT20, PC3, Colo357 and BxPC3 cancer cell lines; assay: MTT cell proliferation assay, four cell lines; type: cell-based; conditions: text b152; read-out: IC50 values in multiple cancer cell lines
Experimental: as §1
Adherent cells at a logarithmic phase were detached by addition of 2-3 ml of trypsin (Gibco), 0.02% EDTA mixture and incubation at 37° C. Cells were plated (100 μL per well) in 48 well flat bottom microtiter plates at densities of 2000 to 5000 per cm^2 (MCF-7, […], T47D, BT20, PC3, BxPC3, COLO357) cells per well. Cells were incubated for 24 h at 37° C. to resume exponential growth. The test compounds were dissolved in DMSO (final concentration 0.1%) and added to the cells 24 h after seeding at varying concentrations. Control wells containing the culture medium, were included in each experiment. Cell proliferation was evaluated after 72h by means of MTT assay.
The biological effects of these compounds were studied against the hormone independent breast (BT20) and prostate (PC3) cancers as well as K-ras positive (Colo357) and K-ras negative (BxPC3) pancreatic cancer cell lines.

[6] = system: Colo357, BxPC3, BT20, and PC3 cells; assay: Cell Death Detection ELISA apoptosis assay; type: cell-based; conditions: FIG. 15, among FPA-124, FPA-125, FPA-127
Experimental: To determine whether the metal conjugates induce apoptosis in tumor cells, quantitative evaluation of apoptosis was carried out with a Cell Death Detection ELISA kit (Roche, Palo Alto, Calif.). Apoptosis was detected according to the protocol supplied by the manufacturer.
Since all copper compounds are redox active metal conjugates, we believe that redox triggered oxidative stress may be one of the underlying mechanisms for the observed apoptotic cell death in the present case. […] This observation is also in accordance with the favorable distortion factor calculated for the present copper compounds using EPR spectra, which factor helps stabilize cuprous and cupric species without dissociation of the conjugate.

[7] = FPA-102 25 mg/kg i.v. on alternate days

Structure (SMILES): CC(=O)C1CCC2C3CCC4=CC(=NNC(N)=S)CCC4(C)C3CCC12C.[Cl][Cu][Cl] (centres unmarked) [FPA-102]
VEGF levels [1]: decrease in the VEGF levels
body weight of treated mice (toxicity) (COLO 357 cells; [7]): no significant change in the body weight
tumor burden (COLO 357 cells; [7]): decrease tumor burden
viable part of tumor mass (COLO 357 cells; tumor histology of treated mice): 20%
cell morphology after PI/Hoechst staining ([2]; IC50 concentration (10 μM), FIG. 7b): nuclear condensation and membrane damage
potency of inducing apoptosis among the metal conjugates ([2]; comparison within series FPA-102 to FPA-104): highest potency of inducing apoptosis
NF-κB in the tumor tissue (EMSA) (NF-κB; treatment for 10 days once every alternate day): down-regulation of NF-κB
apoptotic cells (tumor cells; 24-48 h treatment at IC50 concentration): ~95%
non-viable cells (tumor cells; 3 h incubation at IC50 concentration): 40%
PARP degradation / cleavage [3]: induces poly (ADP-ribose) polymerase degradation
phosphor-Akt level [3]: down regulates

Structure (SMILES): CC(=O)C1CCC2C3CCC4=CC(=NNC(N)=S)CCC4(C)C3CCC12C (centres unmarked) [FPA-101, 17-acetyl-10,13-dimethyl-1,2,6,7,8,9,11,12,13,14,15,16,17-tetradecahydrocyclopenta[a]phenanthren-3-thiosemicarbazone]
antiproliferative action against the cell lines tested [4]: moderate antiproliferative action

IC50 [5]: > 40 µM
Structure (SMILES): O=c1c(-c2ccc(O)cc2)coc2cc(O)cc(O)c12 [Genistein, 4,5,7,-trihydroxyisoflavone]

Structure (SMILES): NC1=[S+][Cu-2]([Cl])([Cl])[N+](=Cc2coc3ccccc3c2=O)N1 [FPA-124]
apoptosis by ELISA, ranking [6]: most active compound
body weight of the treated animals (toxicity) (COLO 357 cells; FPA-124, FIG. 17a): no change in the body weight
tumor load (COLO 357 cells; FPA-124, FIG. 17b): decrease in the tumor load
NF-κB activity in the tumor tissue (EMSA) (NF-κB; FPA-124, FIG. 17c): significantly decreased
